Measurements taken from patent publication US12134623B1, “2,16-dioxapentacyclo[7.7.5.01,21.03,8.010,15]henicosa3(8),10,12,14-tetraene-7,20-dione as an antimicrobial compound” (KING FAISAL UNIVERSITY, priority 2023, dated 2024).

Columns and labels:
Format in all cases: cell-based
Settings in all cases: after 10, 20, 40 and 60 minutes at all dilutions 1:100, 1:200, 1:400, 1:800
Escherichia coli = experiment: Antimicrobial activity by agar dilution, Escherichia coli
Experimental: (§1) The antibacterial properties of the synthesized compound (of 2,16-dioxapentacyclo[7.7.5.0^1,21.0^3,8.0^10,15]henicosa3(8), 10,12,14-tetraene-7,20-dione) were studied by the method of agar dilution. Test solutions of each compound was prepared in concentration of 1% using dimethylformamide as a solvent. Then they were diluted in physiological solution to obtain the final experimental dilutions of 1:100, 1:200, 1:400, and 1:800. The effect of these substances were compared with furacillin in a controllable study. The testing microbes used were gram positive bacteria Staphylococcus aureus, gram negative bacteria Pseudomonas aeruginosa, Escherichia coli, and Candida albicans fungus. The experiments used for this survey were meat-pentonlu agar (EPA) for cultivation of bacteria and Saburo environment for fungi. Each experiment used 1 mL of test solution on each plate for 500 minutes. Two drops of emulsified with microbes feel were added. All experimental samples were taken from the agar after 10, 20, 40, 60 minutes in the environment on the basis of Patrk planted. Bacteria were cultivated at a temperature of 37° C. for 1 day and the mushroom was kept in a thermostat for […] at a temperature of 28° C. Then results were checked. Those of control and the antimicrobial activity for the synthesized compounds are listed in Table 1 below, with furacillin serving as a reference.

Candida albicans = experiment: Antimicrobial (antifungal) activity by agar dilution, Candida albicans
Experimental: as §1

Staphylococcus aureus = experiment: Antimicrobial activity by agar dilution, Staphylococcus aureus
Experimental: as §1

Pseudomonas aeruginosa = experiment: Antimicrobial activity by agar dilution, Pseudomonas aeruginosa
Experimental: as §1

Measured: inhibition activity compared with the inhibition activity of Furacilin

O=C1CCCC2=C1C1c3ccccc3OC3(CCCC(=O)C13)O2 (stereo not shown) [2,16-dioxapentacyclo[7.7.5.0^1,21.0^3,8.0^10,15]henicosa3(8), 10,12,14-tetraene-7,20-dione]
higher inhibition activity: all assays above
